Measurements taken from ChEMBL document CHEMBL4425196, “Synthesis of novel flavone derivatives possessing substituted benzamides and their biological evaluation against human cancer cells” (Bioorg Med Chem Lett, 2016).
The source made the active and inactive calls. The calls are words filed in the database; no cut-off is given here.

How the values were obtained:
HepG2 [1] = test: Growth inhibition of human HepG2 cells at 10 uM by MTT assay relative to control; type: functional; conditions: for inhibition of growth at 10 µM: read-out: GI
MCF7 [2] = test: Growth inhibition of human MCF7 cells at 10 uM by MTT assay relative to control; type: functional; conditions: for inhibition of growth at 10 µM: read-out: GI
HepG2 [3] = test: Growth inhibition of human HepG2 cells by MTT assay; type: functional
MCF7 [4] = test: Growth inhibition of human MCF7 cells by MTT assay; type: functional
[5] = Growth inhibition of human L-132 cells by MTT assay; type: cell-based, L132
[6] = Selectivity index, ratio of GI50 for human L-132 cells to GI50 for human MCF7 cells
[7] = Selectivity index, ratio of GI50 for human L-132 cells to GI50 for human HepG2 cells

Row | GI50 (HepG2 [3]) [µM] | GI50 (MCF7 [4]) [µM] | SMILES | inhibition of growth at 10 µM (HepG2 [1]) [%] | inhibition of growth at 10 µM (MCF7 [2]) [%] | growth inhibition (GI) (HepG2 [1]) | growth inhibition (GI) (MCF7 [2]) | GI50 [5] [µM] | RatioGI50 [6] | RatioGI50 [7]
1 | 61.1 | 10.6 | COc1cc2oc(-c3cccc(NC(=O)c4ccc(C(F)(F)F)cc4)c3)cc(=O)c2c(OC)c1OC | > 50 | > 50 | – | – | – | – | –
2 | 47.2 | 14.7 | COc1cc2oc(-c3cccc(NC(=O)c4ccc(F)cc4)c3)cc(=O)c2c(OC)c1OC | > 50 | > 50 | – | – | – | – | –
3 | 23.1 | 55 | COc1cc2oc(-c3cccc(NC(=O)c4ccccc4Br)c3)cc(=O)c2c(OC)c1OC | > 50 | > 50 | – | – | – | – | –
4 | > 100 | 30.3 | COC(=O)c1ccc(C(=O)Nc2cccc(-c3cc(=O)c4c(OC)c(OC)c(OC)cc4o3)c2)cc1 | > 50 | > 50 | – | – | – | – | –
5 | 10.9 | 6.34 | COc1cc2oc(-c3cccc(NC(=O)c4cccc(Br)c4)c3)cc(=O)c2c(OC)c1OC | > 50 | > 50 | – | – | – | – | –
6 | 10.2 | 12.7 | COc1cc2oc(-c3cccc(NC(=O)c4ccc(C#N)cc4)c3)cc(=O)c2c(OC)c1OC | > 50 | > 50 | – | – | – | – | –
7 | 11.9 | 41.7 | COc1cc2oc(-c3cccc(NC(=O)c4cccc(C#N)c4)c3)cc(=O)c2c(OC)c1OC | > 50 | > 50 | – | – | – | – | –
8 | 7.06 | 7.67 | COc1cccc(C(=O)Nc2cccc(-c3cc(=O)c4c(OC)c(OC)c(OC)cc4o3)c2)c1 | > 50 | > 50 | – | – | 20.9 | 2 - 3 | 2 - 3
9 | > 100 | 1.83 | COc1ccccc1C(=O)Nc1cccc(-c2cc(=O)c3c(O)c(OC)c(OC)cc3o2)c1 | > 50 | > 50 | – | – | – | – | –
10 | > 100 | 2.05 | COc1ccc(C(=O)Nc2cccc(-c3cc(=O)c4c(O)c(OC)c(OC)cc4o3)c2)cc1 | > 50 | > 50 | – | – | – | – | –
11 | 21.3 | 8.78 | COc1cc2oc(-c3cccc(NC(=O)c4ccc(Cl)cc4)c3)cc(=O)c2c(OC)c1OC | > 50 | > 50 | – | – | – | – | –
12 | 7.53 | 15.3 | COc1ccccc1C(=O)Nc1cccc(-c2cc(=O)c3c(OC)c(OC)c(OC)cc3o2)c1 | > 50 | > 50 | – | – | – | – | –
13 | 11.7 | 12.1 | COc1cc2oc(-c3cccc(NC(=O)c4ccccc4)c3)cc(=O)c2c(OC)c1OC | > 50 | > 50 | – | – | – | – | –
14 | 8.85 | 9.65 | COc1cc2oc(-c3cccc(NC(=O)c4ccc(Br)cc4)c3)cc(=O)c2c(OC)c1OC | > 50 | > 50 | – | – | – | – | –
15 | 18.8 | 20.1 | COc1cc2oc(-c3cccc(NC(=O)c4ccc([N+](=O)[O-])cc4)c3)cc(=O)c2c(OC)c1OC | > 50 | > 50 | – | – | – | – | –
16 | 54 | 91.4 | COc1cc2oc(-c3ccccc3)cc(=O)c2c(OC)c1OC [BAICALEIN TRIMETHYL ETHER] | > 50 | > 50 | – | – | – | – | –
17 | 22.2 | 6.87 | COc1ccc(C(=O)Nc2cccc(-c3cc(=O)c4c(OC)c(OC)c(OC)cc4o3)c2)cc1 | > 50 | > 50 | – | – | – | – | –
18 | > 100 | 35.6 | COc1cccc(C(=O)Nc2cccc(-c3cc(=O)c4c(O)c(OC)c(OC)cc4o3)c2)c1 | > 50 | > 50 | – | – | – | – | –
19 | 9.75 | 8.32 | COc1cc2oc(-c3cccc(NC(=O)c4ccc(C)cc4)c3)cc(=O)c2c(OC)c1OC | > 50 | > 50 | – | – | – | – | –
20 | 5.94 | 9.12 | COc1cc2oc(-c3cccc(NC(=O)c4ccc5c(c4)OCO5)c3)cc(=O)c2c(OC)c1OC | > 50 | > 50 | – | – | 18 | 2 - 3 | 2 - 3
21 | 45.1 | 8.47 | COc1cc2oc(-c3cccc(NC(=O)c4ccc5c(c4)OCO5)c3)cc(=O)c2c(O)c1OC | > 50 | > 50 | – | – | – | – | –
22 | 44.8 | 6.94 | COc1cc2oc(-c3cccc(NC(=O)c4cccc(Br)c4)c3)cc(=O)c2c(O)c1OC | > 50 | > 50 | – | – | – | – | –

The remaining lines, values behind:

Row | SMILES | GI50 (HepG2 [3]) [µM] | GI50 (MCF7 [4]) [µM] | inhibition of growth at 10 µM (HepG2 [1]) [%] | inhibition of growth at 10 µM (MCF7 [2]) [%] | growth inhibition (GI) (HepG2 [1]) | growth inhibition (GI) (MCF7 [2]) | GI50 [5] [µM] | RatioGI50 [6] | RatioGI50 [7]
23 | COc1cc2oc(-c3ccc(NC(=O)c4ccccc4)cc3)cc(=O)c2c(O)c1OC | – | – | < 50 | < 50 | – | – | – | – | –
24 | COc1cc2oc(-c3ccc(NC(=O)c4ccc(Cl)cc4)cc3)cc(=O)c2c(O)c1OC | – | – | < 50 | < 50 | – | – | – | – | –
25 | COc1ccc(C(=O)Nc2ccc(-c3cc(=O)c4c(O)c(OC)c(OC)cc4o3)cc2)cc1 | – | – | < 50 | < 50 | – | – | – | – | –
26 | O=c1cc(-c2ccccc2)oc2cc(O)c(O)c(O)c12 | – | – | – | – | inactive | inactive | – | – | –
27 | COc1cc2oc(-c3ccc(NC(=O)c4ccccc4Br)cc3)cc(=O)c2c(O)c1OC | – | – | < 50 | < 50 | – | – | – | – | –
28 | COc1cccc(C(=O)Nc2ccc(-c3cc(=O)c4c(O)c(OC)c(OC)cc4o3)cc2)c1 | – | – | < 50 | < 50 | – | – | – | – | –
29 | COc1cc2oc(-c3ccc(NC(=O)c4ccc(C#N)cc4)cc3)cc(=O)c2c(O)c1OC | – | – | < 50 | < 50 | – | – | – | – | –
30 | COc1cc([C@@H]2c3cc4c(cc3[C@@H](O[C@@H]3O[C@@H]5CO[C@@H](C)O[C@H]5[C@H](O)[C@H]3O)[C@H]3COC(=O)[C@H]23)OCO4)cc(OC)c1O [ETOPOSIDE] | – | – | – | – | – | – | 10.4 | – | –
31 | COc1cc2oc(-c3ccc(NC(=O)c4ccc(F)cc4)cc3)cc(=O)c2c(O)c1OC | – | – | < 50 | < 50 | – | – | – | – | –
32 | COC(=O)c1ccc(C(=O)Nc2ccc(-c3cc(=O)c4c(O)c(OC)c(OC)cc4o3)cc2)cc1 | – | – | < 50 | < 50 | – | – | – | – | –
33 | COc1cc2oc(-c3ccc(NC(=O)c4cccc(Br)c4)cc3)cc(=O)c2c(O)c1OC | – | – | 40 | < 50 | – | – | – | – | –
34 | COc1cc2oc(-c3ccc(NC(=O)c4ccc(C)cc4)cc3)cc(=O)c2c(O)c1OC | – | – | < 50 | < 50 | – | – | – | – | –
35 | COc1ccccc1C(=O)Nc1ccc(-c2cc(=O)c3c(O)c(OC)c(OC)cc3o2)cc1 | – | – | < 50 | < 50 | – | – | – | – | –
36 | COc1cc2oc(-c3ccc(NC(=O)c4ccc([N+](=O)[O-])cc4)cc3)cc(=O)c2c(O)c1OC | – | – | 40 | < 50 | – | – | – | – | –
37 | COc1cc2oc(-c3ccc(NC(=O)c4ccc(C(F)(F)F)cc4)cc3)cc(=O)c2c(O)c1OC | – | – | < 50 | < 50 | – | – | – | – | –
38 | COc1cc2oc(-c3ccc(NC(=O)c4cccc(C#N)c4)cc3)cc(=O)c2c(O)c1OC | – | – | < 50 | < 50 | – | – | – | – | –
39 | COc1cc2oc(-c3ccc(NC(=O)c4ccc5c(c4)OCO5)cc3)cc(=O)c2c(O)c1OC | – | – | 40 | < 50 | – | – | – | – | –
40 | COc1cc2oc(-c3ccc(NC(=O)c4ccc(Br)cc4)cc3)cc(=O)c2c(O)c1OC | – | – | < 50 | < 50 | – | – | – | – | –
